Experimental data reported in patent US20220162191A1, “SMALL MOLECULE MODULATORS OF IL-17” (LEO PHARMA A/S, priority 2019, published 2022).

These compounds were tested against T1, human IL-17AA (Homo sapiens, UniProt Q16552) (assay: IL-8 release assay in human epithelial keratinocytes adult (HEKa)). Conditions: 3 ng/ml human IL-17AA + 10 ng/ml human TNFalpha, 68-72 h, IL-8 by HTRF, read-out: Rel EC50 L-8 release assay.
T1 construct: host or cells: HEK (human embryonic kidney) cells
T1 sequence (Q16552 24-155) 1: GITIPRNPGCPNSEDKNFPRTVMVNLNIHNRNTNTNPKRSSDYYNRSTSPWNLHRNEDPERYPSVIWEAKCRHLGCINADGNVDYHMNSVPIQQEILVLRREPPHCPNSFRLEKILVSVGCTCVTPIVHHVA
T1 sequence (Q16552 24-155) 2: T1 sequence (Q16552 24-155) 1
Format: cell-based
Procedure, shortened: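 IL-8 secretion, quantified by HTRF (665/620 nm) as percent of controls, served as the readout after 68–72 h culture of HEKa cells with compound plus IL-17AA (3 ng/ml final) and TNF-alpha (10 ng/ml final). Four-parameter logistic curves gave relative IC50 and Emax.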

First: CC(C)n1cc(-c2ccc(Cl)c(CC(NC(=O)c3ccnn3C)C(=O)Nc3ccc(-c4nncn4C)cc3)c2)cc(C(F)(F)F)c1=O (stereo not drawn) [Example 163, N-[1-[[2-chloro-5-[1-isopropyl-6-oxo-5-(trifluoromethyl)-3-pyridyl]phenyl]methyl]-2-[4-(4-methyl-1,2,4-triazol-3-yl)anilino]-2-oxo-ethyl]-2-methyl-pyrazole-3-carboxamide]
Second: Cn1cnnc1-c1ccc(NC(=O)C(Cc2cc(-c3cccc(C(C)(C)CO)c3)ccc2Cl)NC(=O)c2ccnn2C)cc1 (stereo not drawn) [Example 164, N-[1-[[2-chloro-5-[3-(2-hydroxy-1,1-dimethyl-ethyl)phenyl]phenyl]methyl]-2-[4-(4-methyl-1,2,4-triazol-3-yl)anilino]-2-oxo-ethyl]-2-methyl-pyrazole-3-carboxamide]
The EC50 of the first is higher: greater than 1000 nM for the first, 100 to 1000 nM for the second.

Cn1cncc1-c1ccc(NC(=O)C(Cc2cc(-c3ccnc(N4CCOCC4)c3)ccc2Cl)NC(=O)c2ccnn2C)cc1 (stereo not drawn) [Example 165, N-[1-[[2-chloro-5-(2-morpholino-4-pyridyl)phenyl]methyl]-2-[4-(3-methylimidazol-4-yl)anilino]-2-oxo-ethyl]-2-methyl-pyrazole-3-carboxamide] and Cn1cncc1-c1ccc(NC(=O)C(Cc2cc(-c3ccnc(N4CC5(COC5)C4)c3)ccc2Cl)NC(=O)c2ccnn2C)cc1 (stereo not drawn) [Example 183, N-[1-[[2-chloro-5-[2-(6-oxa-2-azaspiro[3.3]heptan-2-yl)-4-pyridyl]phenyl]methyl]-2-[4-(3-methylimidazol-4-yl)anilino]-2-oxo-ethyl]-2-methyl-pyrazole-3-carboxamide] fall in the same range of EC50: 100 to 1000 nM for the first, 100 to 1000 nM for the second.

Cn1cncc1-c1ccc(NC(=O)C(Cc2cc(-c3ccnc(OCC4CC4)c3)ccc2Cl)NC(=O)c2ccnn2C)cc1 (stereo not drawn) [Example 166, N-[1-[[2-chloro-5-[2-(cyclopropylmethoxy)-4-pyridyl]phenyl]methyl]-2-[4-(3-methylimidazol-4-yl)anilino]-2-oxo-ethyl]-2-methyl-pyrazole-3-carboxamide] and Cn1cncc1-c1ccc(NC(=O)C(Cc2cc(-c3ccnc(N4CC[C@H](CO)C4)c3)ccc2Cl)NC(=O)c2ccnn2C)cc1 (stereo partly drawn) [Example 185, N-[1-[[2-chloro-5-[2-[(3S)-3-(hydroxymethyl)pyrrolidin-1-yl]-4-pyridyl]phenyl]methyl]-2-[4-(3-methylimidazol-4-yl)anilino]-2-oxo-ethyl]-2-methyl-pyrazole-3-carboxamide] fall in the same range of EC50: 100 to 1000 nM for the first, 100 to 1000 nM for the second.

CN(C)C(=O)c1cc(-c2ccc(Cl)c(CC(NC(=O)c3ccnn3C)C(=O)Nc3ccc(-c4nncn4C)cc3)c2)ccc1O (stereo not drawn) [Example 167, N-[1-[[2-chloro-5-[3-(dimethylcarbamoyl)-4-hydroxy-phenyl]phenyl]methyl]-2-[4-(4-methyl-1,2,4-triazol-3-yl)anilino]-2-oxo-ethyl]-2-methyl-pyrazole-3-carboxamide] and Cn1cnnc1-c1ccc(NC(=O)C(Cc2cc(-c3ccc(O)c(C(=O)N4CCC4)c3)ccc2Cl)NC(=O)c2ccnn2C)cc1 (stereo not drawn) [Example 172, N-[1-[[5-[3-(azetidine-1-carbonyl)-4-hydroxy-phenyl]-2-chloro-phenyl]methyl]-2-[4-(4-methyl-1,2,4-triazol-3-yl)anilino]-2-oxo-ethyl]-2-methyl-pyrazole-3-carboxamide] cannot be ordered by EC50: greater than 1000 nM for the first, greater than 1000 nM for the second.

Cn1cnnc1-c1ccc(NC(=O)C(Cc2cc(-c3ccc(O)c(CN4CCC4)c3)ccc2Cl)NC(=O)c2ccnn2C)cc1 (stereo not drawn) [Example 168, N-[1-[[5-[3-(azetidin-1-ylmethyl)-4-hydroxy-phenyl]-2-chloro-phenyl]methyl]-2-[4-(4-methyl-1,2,4-triazol-3-yl)anilino]-2-oxo-ethyl]-2-methyl-pyrazole-3-carboxamide] and Cn1cnnc1-c1ccc(NC(=O)C(Cc2cc(-c3ccc(O)c(C4=NCCCO4)c3)ccc2Cl)NC(=O)c2ccnn2C)cc1 (stereo not drawn) [Example 178, N-[1-[[2-chloro-5-[3-(5,6-dihydro-4H-1,3-oxazin-2-yl)-4-hydroxy-phenyl]phenyl]methyl]-2-[4-(4-methyl-1,2,4-triazol-3-yl)anilino]-2-oxo-ethyl]-2-methyl-pyrazole-3-carboxamide] fall in the same range of EC50: 100 to 1000 nM for the first, 100 to 1000 nM for the second.

Cn1cnnc1-c1ccc(NC(=O)C(Cc2cc(-c3cccc(CC4CC4)c3)ccc2Cl)NC(=O)c2ccnn2C)cc1 (stereo not drawn) [Example 169, N-[1-[[2-chloro-5-[3-(cyclopropylmethyl)phenyl]phenyl]methyl]-2-[4-(4-methyl-1,2,4-triazol-3-yl)anilino]-2-oxo-ethyl]-2-methyl-pyrazole-3-carboxamide] and Cn1cnnc1-c1ccc(NC(=O)C(Cc2cc(-c3cccc(C4CC4)c3)ccc2Cl)NC(=O)c2ccnn2C)cc1 (stereo not drawn) [Example 170, N-[1-[[2-chloro-5-(3-cyclopropylphenyl)phenyl]methyl]-2-[4-(4-methyl-1,2,4-triazol-3-yl)anilino]-2-oxo-ethyl]-2-methyl-pyrazole-3-carboxamide] fall in the same range of EC50: 100 to 1000 nM for the first, 100 to 1000 nM for the second.

First: CCCCn1cc(-c2ccc(Cl)c(C[C@H](NC(=O)c3ccnn3C)C(=O)Nc3ccc(-c4cncn4C)cc3)c2)cn1 [Example 171]
Second: Cn1cncc1-c1ccc(NC(=O)C(Cc2cc(-c3cccc(C(C)(C)N)c3)ccc2Cl)NC(=O)c2ccnn2C)cc1 (stereo not drawn) [Example 176, N-[1-[[5-[3-(1-amino-1-methyl-ethyl)phenyl]-2-chloro-phenyl]methyl]-2-[4-(3-methylimidazol-4-yl)anilino]-2-oxo-ethyl]-2-methyl-pyrazole-3-carboxamide]
The EC50 of the first is higher: 100 to 1000 nM for the first, less than 100 nM for the second.

Compared with Cn1cnnc1-c1ccc(NC(=O)C(Cc2cc(-c3ccc(O)c(C(=O)N4CCNCC4)c3)ccc2Cl)NC(=O)c2ccnn2C)cc1 (stereo not drawn) [Example 173, N-[1-[[2-chloro-5-[4-hydroxy-3-(piperazine-1-carbonyl)phenyl]phenyl]methyl]-2-[4-(4-methyl-1,2,4-triazol-3-yl)anilino]-2-oxo-ethyl]-2-methyl-pyrazole-3-carboxamide], Cn1cncc1-c1ccc(NC(=O)C(Cc2cc(-c3ccnc(N4CCC4CO)c3)ccc2Cl)NC(=O)c2ccnn2C)cc1 (stereo not drawn) [Example 187, N-[1-[[2-chloro-5-[2-[2-(hydroxymethyl)azetidin-1-yl]-4-pyridyl]phenyl]methyl]-2-[4-(3-methylimidazol-4-yl)anilino]-2-oxo-ethyl]-2-methyl-pyrazole-3-carboxamide] is lower in EC50: greater than 1000 nM for the first, 100 to 1000 nM for the second.

Cc1n[nH]cc1-c1ccc(NC(=O)[C@H](Cc2cc(-c3ccc(=O)n(C(C)C)c3)ccc2Cl)NC(=O)c2ccnn2C)cc1O [Example 174, N-[(1S)-1-[[2-chloro-5-(1-isopropyl-6-oxo-3-pyridyl)phenyl]methyl]-2-[3-hydroxy-4-(3-methyl-1H-pyrazol-4-yl)anilino]-2-oxo-ethyl]-2-methyl-pyrazole-3-carboxamide] and Cc1n[nH]c(C)c1-c1ccc(NC(=O)[C@H](Cc2cc(-c3ccc(=O)n(C(C)C)c3)ccc2Cl)NC(=O)c2ccnn2C)cc1O [Example 177, N-[(1S)-1-[[2-chloro-5-(1-isopropyl-6-oxo-3-pyridyl)phenyl]methyl]-2-[4-(3,5-dimethyl-1H-pyrazol-4-yl)-3-hydroxy-anilino]-2-oxo-ethyl]-2-methyl-pyrazole-3-carboxamide] cannot be ordered by EC50: less than 100 nM for the first, less than 100 nM for the second.

CC(C)n1cc(-c2ccc(Cl)c(C[C@H](NC(=O)c3ccnn3C)C(=O)Nc3ccc(-c4cn[nH]c4)c(O)c3)c2)ccc1=O [Example 175, N-[(1S)-1-[[2-chloro-5-(1-isopropyl-6-oxo-3-pyridyl)phenyl]methyl]-2-[3-hydroxy-4-(1H-pyrazol-4-yl)anilino]-2-oxo-ethyl]-2-methyl-pyrazole-3-carboxamide] and Cn1cncc1-c1ccc(NC(=O)C(Cc2cc(-c3cccc(C(C)(C)O)c3)ccc2Cl)NC(=O)c2ccnn2C)cc1 (stereo not drawn) [Example 179, N-[1-[[2-chloro-5-[3-(1-hydroxy-1-methyl-ethyl)phenyl]phenyl]methyl]-2-[4-(3-methylimidazol-4-yl)anilino]-2-oxo-ethyl]-2-methyl-pyrazole-3-carboxamide] cannot be ordered by EC50: less than 100 nM for the first, less than 100 nM for the second.

Cc1ncn(C)c1-c1ccc(NC(=O)[C@H](Cc2cc(-c3cccc(C(C)(C)O)c3)ccc2Cl)NC(=O)c2ccnn2C)cc1 [Example 181, N-[(1S)-[[2-chloro-5-[3-(1-hydroxy-1-methyl-ethyl)phenyl]phenyl]methyl]-2-[4-(3,5-dimethylimidazol-4-yl)anilino]-2-oxo-ethyl]-2-methyl-pyrazole-3-carboxamide] and Cc1ncn(C)c1-c1ccc(NC(=O)[C@H](Cc2cc(-c3cnn(C(C)(C)C)c3)ccc2Cl)NC(=O)c2ccnn2C)cc1 [Example 182, N-[(1S)-1-[[5-(1-tert-butylpyrazol-4-yl)-2-chloro-phenyl]methyl]-2-[4-(3,5-dimethylimidazol-4-yl)anilino]-2-oxo-ethyl]-2-methyl-pyrazole-3-carboxamide] cannot be ordered by EC50: less than 100 nM for the first, less than 100 nM for the second.

CN(C)[C@H]1CCN(c2cc(-c3ccc(Cl)c(CC(NC(=O)c4ccnn4C)C(=O)Nc4ccc(-c5cncn5C)cc4)c3)ccn2)C1 (stereo partly drawn) [Example 184, N-[1-[[2-chloro-5-[2-[(3S)-3-(dimethylamino)pyrrolidin-1-yl]-4-pyridyl]phenyl]methyl]-2-[4-(3-methylimidazol-4-yl)anilino]-2-oxo-ethyl]-2-methyl-pyrazole-3-carboxamide] and Cn1cncc1-c1ccc(NC(=O)C(Cc2cc(-c3ccnc(N4CC[C@@H](CO)C4)c3)ccc2Cl)NC(=O)c2ccnn2C)cc1 (stereo partly drawn) [Example 186, N-[1-[[2-chloro-5-[2-[(3R)-3-(hydroxymethyl)pyrrolidin-1-yl]-4-pyridyl]phenyl]methyl]-2-[4-(3-methylimidazol-4-yl)anilino]-2-oxo-ethyl]-2-methyl-pyrazole-3-carboxamide] fall in the same range of EC50: 100 to 1000 nM for the first, 100 to 1000 nM for the second.
